Data on 9 compounds can be found in ChEMBL document CHEMBL5226302, “Small-Molecule Inhibitors Targeting the Canonical WNT Signaling Pathway for the Treatment of Cancer” (J Med Chem, 2021).

Structures are written as SMILES.

For series [1], the system named is HEK293. The experiment in a line: Antitumor activity against human HEK293 cells in CB17-SCID xenografted mouse model at 300 mg/kg relative to control. It is filed as functional. In general terms: A xenograft is tissue or cells of one species grown in another, often human tumour cells in immunodeficient mice.
Series [2] concerns HEK293. Nature of the series: Antitumor activity against human HEK293 cells in CB17-SCID xenografted mouse model at 150 mg/kg relative to control. Type of series: functional.
Another series concerns the target T1, Catenin beta-1 (Homo sapiens, UniProt P35222).
T1 sequence (P35222 whole entry): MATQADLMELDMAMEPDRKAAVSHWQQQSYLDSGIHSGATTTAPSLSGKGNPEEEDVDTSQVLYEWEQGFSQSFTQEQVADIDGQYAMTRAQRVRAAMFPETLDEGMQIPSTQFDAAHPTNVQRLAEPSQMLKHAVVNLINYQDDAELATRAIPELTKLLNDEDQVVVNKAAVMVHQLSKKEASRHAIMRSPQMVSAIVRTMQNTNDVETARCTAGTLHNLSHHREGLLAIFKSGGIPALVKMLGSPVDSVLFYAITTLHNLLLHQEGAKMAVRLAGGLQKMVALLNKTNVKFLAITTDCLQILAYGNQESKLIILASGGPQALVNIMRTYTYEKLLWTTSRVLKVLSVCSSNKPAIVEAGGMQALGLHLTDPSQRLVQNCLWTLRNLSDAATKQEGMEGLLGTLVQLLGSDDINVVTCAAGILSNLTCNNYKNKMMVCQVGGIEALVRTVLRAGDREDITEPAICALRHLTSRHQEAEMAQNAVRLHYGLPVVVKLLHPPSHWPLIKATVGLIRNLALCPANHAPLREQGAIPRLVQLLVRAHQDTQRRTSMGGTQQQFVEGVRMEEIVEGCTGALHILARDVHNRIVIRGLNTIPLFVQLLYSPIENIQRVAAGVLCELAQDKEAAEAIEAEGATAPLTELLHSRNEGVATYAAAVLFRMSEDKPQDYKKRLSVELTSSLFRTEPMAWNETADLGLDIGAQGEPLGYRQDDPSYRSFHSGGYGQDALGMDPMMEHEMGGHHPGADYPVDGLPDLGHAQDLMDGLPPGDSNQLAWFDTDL

A short description of series [3]: Half life in mouse plasma. Type of series: ADME, cell-free.
Series [4] concerns the target T2, Poly [ADP-ribose] polymerase tankyrase-1 (Homo sapiens, UniProt O95271).
T2 sequence (O95271 whole entry): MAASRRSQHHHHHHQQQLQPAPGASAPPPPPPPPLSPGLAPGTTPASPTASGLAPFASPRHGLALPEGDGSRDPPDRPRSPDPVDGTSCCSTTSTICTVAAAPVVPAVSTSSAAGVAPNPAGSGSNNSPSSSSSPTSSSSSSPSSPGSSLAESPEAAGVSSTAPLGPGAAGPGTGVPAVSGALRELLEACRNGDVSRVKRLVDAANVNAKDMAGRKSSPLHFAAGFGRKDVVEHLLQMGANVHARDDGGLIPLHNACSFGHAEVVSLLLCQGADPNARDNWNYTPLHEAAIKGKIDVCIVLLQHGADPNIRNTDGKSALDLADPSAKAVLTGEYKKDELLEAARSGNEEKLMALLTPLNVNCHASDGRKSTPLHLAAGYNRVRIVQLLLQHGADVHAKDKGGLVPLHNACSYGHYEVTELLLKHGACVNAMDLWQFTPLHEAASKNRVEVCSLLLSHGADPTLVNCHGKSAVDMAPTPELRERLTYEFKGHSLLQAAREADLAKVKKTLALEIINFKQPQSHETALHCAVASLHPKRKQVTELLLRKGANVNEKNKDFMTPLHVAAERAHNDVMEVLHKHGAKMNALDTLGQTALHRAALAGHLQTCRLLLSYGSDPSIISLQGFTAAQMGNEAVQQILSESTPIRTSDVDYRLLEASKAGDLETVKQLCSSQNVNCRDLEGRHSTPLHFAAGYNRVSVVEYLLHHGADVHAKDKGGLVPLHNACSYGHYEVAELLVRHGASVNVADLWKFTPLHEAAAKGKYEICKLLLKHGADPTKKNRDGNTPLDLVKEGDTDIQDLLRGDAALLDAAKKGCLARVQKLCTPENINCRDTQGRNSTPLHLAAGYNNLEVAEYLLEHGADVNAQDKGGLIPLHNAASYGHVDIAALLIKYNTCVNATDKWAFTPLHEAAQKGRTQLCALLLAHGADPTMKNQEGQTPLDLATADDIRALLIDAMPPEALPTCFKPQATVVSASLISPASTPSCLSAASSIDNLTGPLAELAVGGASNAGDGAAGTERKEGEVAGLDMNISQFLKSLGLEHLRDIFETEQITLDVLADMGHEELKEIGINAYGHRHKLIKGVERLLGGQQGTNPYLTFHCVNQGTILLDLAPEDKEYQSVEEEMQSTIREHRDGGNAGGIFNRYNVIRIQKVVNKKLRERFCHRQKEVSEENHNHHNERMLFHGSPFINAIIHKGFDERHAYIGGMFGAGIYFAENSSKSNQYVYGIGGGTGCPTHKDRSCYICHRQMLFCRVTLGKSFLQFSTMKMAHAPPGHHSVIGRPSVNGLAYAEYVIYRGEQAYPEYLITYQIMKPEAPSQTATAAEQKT
The experiment in a line: Inhibition of TNKS1 (unknown origin).

Another series concerns DLD-1. The experiment in a line: Antiproliferative activity against human DLD-1 cells assessed as reduction in cell viability by cell proliferation assay. Type of series: functional, cell-based.
Series [5] addresses T3, Poly [ADP-ribose] polymerase tankyrase-2 (Homo sapiens, UniProt Q9H2K2).
T3 sequence (Q9H2K2 whole entry): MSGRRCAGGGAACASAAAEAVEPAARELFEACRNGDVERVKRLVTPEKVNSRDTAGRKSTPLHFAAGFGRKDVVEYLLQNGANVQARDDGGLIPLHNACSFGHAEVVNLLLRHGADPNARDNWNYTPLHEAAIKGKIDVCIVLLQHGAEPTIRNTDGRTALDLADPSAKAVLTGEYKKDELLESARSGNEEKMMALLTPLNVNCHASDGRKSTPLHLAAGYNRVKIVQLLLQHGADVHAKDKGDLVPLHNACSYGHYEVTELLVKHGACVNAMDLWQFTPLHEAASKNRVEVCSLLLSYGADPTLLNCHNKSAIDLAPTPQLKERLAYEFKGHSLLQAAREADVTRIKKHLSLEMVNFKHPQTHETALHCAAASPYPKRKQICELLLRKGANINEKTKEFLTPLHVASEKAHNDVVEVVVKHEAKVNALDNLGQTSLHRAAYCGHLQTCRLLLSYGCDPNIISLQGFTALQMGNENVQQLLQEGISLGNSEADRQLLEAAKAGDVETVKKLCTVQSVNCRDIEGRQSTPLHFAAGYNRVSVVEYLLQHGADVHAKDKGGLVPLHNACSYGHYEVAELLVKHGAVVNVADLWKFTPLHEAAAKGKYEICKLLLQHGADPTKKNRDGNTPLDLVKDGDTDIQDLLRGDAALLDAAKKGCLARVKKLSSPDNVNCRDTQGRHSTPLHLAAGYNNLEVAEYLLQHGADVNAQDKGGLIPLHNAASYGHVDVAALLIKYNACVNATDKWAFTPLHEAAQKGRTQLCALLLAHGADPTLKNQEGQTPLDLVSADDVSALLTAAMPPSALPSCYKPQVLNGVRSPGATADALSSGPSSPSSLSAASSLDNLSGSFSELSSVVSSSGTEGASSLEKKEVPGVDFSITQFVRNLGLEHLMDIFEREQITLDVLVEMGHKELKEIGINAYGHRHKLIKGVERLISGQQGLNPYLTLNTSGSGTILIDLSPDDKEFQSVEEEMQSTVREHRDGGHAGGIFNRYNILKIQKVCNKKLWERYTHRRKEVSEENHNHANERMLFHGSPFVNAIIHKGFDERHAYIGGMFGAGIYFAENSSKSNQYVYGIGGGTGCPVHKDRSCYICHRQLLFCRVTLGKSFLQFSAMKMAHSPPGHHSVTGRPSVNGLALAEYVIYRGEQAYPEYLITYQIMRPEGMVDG
Nature of the series: Inhibition of TNKS2 (unknown origin).

Series [6] is described as follows: Clearance in human liver microsomes. Type of series: ADME, Microsome. The following applies: read-out: CLH.
The nature of series [7]: Clearance in mouse liver microsomes. Type of series: ADME, Microsome. The following applies: read-out: CLH. Background: Liver microsomes are vesicles of endoplasmic reticulum, rich in cytochrome P450 enzymes.
The test system of another series is MCF7. Nature of the series: Antiproliferative activity against human MCF7 cells by MTT assay. It is filed as functional, cell-based. A general note: Tetrazolium dyes change colour on reduction, which living cells bring about.
The target in series [8] is T2, Poly [ADP-ribose] polymerase tankyrase-1. The experiment in a line: Inhibition of human TNKS1 (1030 to 1317 residues) measured after 20 hrs.
Series [9] addresses Poly [ADP-ribose] polymerase 2 (Homo sapiens, UniProt Q9UGN5). Nature of the series: Inhibition of PARP2 (unknown origin) using NAD as substrate incubated for 1 min.
The target of series [10] is T3, Poly [ADP-ribose] polymerase tankyrase-2. The experiment in a line: Inhibition of human TNKS2 (873 to 1162 residues) measured after 15 hrs in presence of NAD+ by fluorescence assay.
Series [11] deals with Poly [ADP-ribose] polymerase 1 (Homo sapiens, UniProt P09874). Nature of the series: Inhibition of human recombinant PARP1 incubated for 30 mins in the presence of NAD.
Chain of Poly [ADP-ribose] polymerase 1 (P09874 whole entry): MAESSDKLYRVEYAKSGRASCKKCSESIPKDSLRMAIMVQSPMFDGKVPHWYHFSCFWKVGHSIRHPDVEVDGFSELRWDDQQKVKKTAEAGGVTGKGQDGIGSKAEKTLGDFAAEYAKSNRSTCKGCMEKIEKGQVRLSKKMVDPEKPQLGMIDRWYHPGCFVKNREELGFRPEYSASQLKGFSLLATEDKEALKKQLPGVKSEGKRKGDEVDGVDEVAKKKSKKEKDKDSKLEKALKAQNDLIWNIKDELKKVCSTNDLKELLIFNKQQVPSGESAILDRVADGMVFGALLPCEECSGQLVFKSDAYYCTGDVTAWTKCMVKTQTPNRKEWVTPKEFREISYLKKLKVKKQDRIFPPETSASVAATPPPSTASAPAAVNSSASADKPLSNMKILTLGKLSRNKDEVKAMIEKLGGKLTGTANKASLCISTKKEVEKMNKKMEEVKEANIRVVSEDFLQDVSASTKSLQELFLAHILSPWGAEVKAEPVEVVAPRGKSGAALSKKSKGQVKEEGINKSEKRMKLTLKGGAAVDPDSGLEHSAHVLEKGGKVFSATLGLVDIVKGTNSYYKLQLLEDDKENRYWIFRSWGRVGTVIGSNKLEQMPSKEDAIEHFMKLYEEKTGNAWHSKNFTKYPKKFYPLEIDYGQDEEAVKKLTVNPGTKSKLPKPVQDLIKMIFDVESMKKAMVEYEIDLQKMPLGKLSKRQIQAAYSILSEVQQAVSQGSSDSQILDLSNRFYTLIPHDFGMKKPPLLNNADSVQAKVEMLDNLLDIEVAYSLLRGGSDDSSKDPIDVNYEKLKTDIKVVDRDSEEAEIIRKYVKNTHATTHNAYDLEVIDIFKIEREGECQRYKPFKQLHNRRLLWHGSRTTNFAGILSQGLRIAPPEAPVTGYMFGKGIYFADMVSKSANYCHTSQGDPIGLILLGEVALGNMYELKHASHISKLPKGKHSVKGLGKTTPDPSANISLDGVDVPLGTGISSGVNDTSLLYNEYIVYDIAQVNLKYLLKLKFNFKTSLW
Series [12] in a line: Efflux ratio of apparent permeability in human Caco-2 cells. Type of series: ADME, cell-based.

Chain of Poly [ADP-ribose] polymerase 2 (Q9UGN5 whole entry, the tested form may be a part): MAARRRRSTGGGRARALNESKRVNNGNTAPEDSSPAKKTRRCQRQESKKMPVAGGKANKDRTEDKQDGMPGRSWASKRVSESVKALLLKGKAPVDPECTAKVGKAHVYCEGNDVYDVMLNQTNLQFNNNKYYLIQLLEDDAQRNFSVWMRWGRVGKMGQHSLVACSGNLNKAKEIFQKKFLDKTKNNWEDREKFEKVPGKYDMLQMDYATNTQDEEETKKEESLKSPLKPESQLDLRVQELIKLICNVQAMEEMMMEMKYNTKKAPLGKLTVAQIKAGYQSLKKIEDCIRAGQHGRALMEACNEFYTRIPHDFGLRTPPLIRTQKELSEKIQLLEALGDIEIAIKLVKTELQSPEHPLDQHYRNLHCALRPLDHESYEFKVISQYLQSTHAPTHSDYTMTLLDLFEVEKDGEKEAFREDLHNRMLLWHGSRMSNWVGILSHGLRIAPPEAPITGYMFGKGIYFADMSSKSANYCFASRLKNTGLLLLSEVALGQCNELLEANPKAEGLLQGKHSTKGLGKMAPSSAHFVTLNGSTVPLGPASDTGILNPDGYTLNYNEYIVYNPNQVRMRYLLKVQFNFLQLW

In the case of `COc1ccc(-n2c(SCc3nc(-c4ccc(C)cc4)no3)nnc2-c2ccncc2)cc1`, the figures for the Activity in the series with HEK293 [1] and in the series on HEK293 [2] were 35% and 33%, respectively. Broadly, the IC50 is the point on the concentration scale where inhibition reaches its midpoint. With `On1ncc2cc(CCc3nn[nH]n3)ccc21`, the IC50 against Catenin beta-1 was found to be 500 nM.

One may read the half-life as the time needed for the level to fall by half in the phase considered. As for `CC1(C)OC(=O)N(c2ccc(C(=O)Nc3cccc4cccnc34)cc2)[C@H]1c1ccccc1`, the half-life in series [3] is 5.2 h. In [4], `O=C(CCC1CCCC1)Nc1nnc2n1CCS2` returned a 50% inhibitory concentration (IC50) of 1900 nM. On to `CC1(C)OC(=O)N([C@H]2CC[C@H](c3cnc(N)c(-c4ncccn4)c3)CC2)[C@H]1c1ccccc1`, for which the IC50 stood at 3000 nM in the series with DLD-1 and 22 nM in series [5].

Take `CC1(C)OC(=O)N(c2ccc(-c3cnc(N)c(-c4ncccn4)c3)cc2)[C@H]1c1ccccc1`: the microsomal CLint in series [6] was 33 µL/min/mg; in [7], 48 µL/min/mg. The EC50 is the concentration giving half of the maximal effect. A lower EC50 goes with higher potency in that assay. Regarding `Cc1cccc2c(=O)[nH]c3c(c12)COC(C(C)(C)CO)C3` (stereo not given), in the series on MCF7, the concentration for a half-maximal effect (EC50) is 7 nM.

Turning to `COc1cccc2c(=O)[nH]c(-c3ccc(C)cc3)cc12`, the 50% inhibitory concentration (IC50) is 30 nM in [8], over 10000 nM in [9], 5.1 nM in series [10] and over 10000 nM in series [11]. By efflux ratio is commonly meant a quotient of directional permeabilities that is used to spot active efflux. With `Cc1cc(N2C[C@@H](C)N[C@@H](C)C2)ncc1-c1ccc(-c2nc3c(ccn3C)c(=O)[nH]2)cc1`, the efflux ratio in series [12] worked out at 2.7.
